Results taken from PubChem BioAssay AID248 (DTP/NCI, 2004).
Values joined by “and” are separate entries in the source; they are usually repeats but may differ in a detail not shown here. Equal entries are not always repeated. Inconclusive results and toxic doses are left out. Rule as the data show it: active = T/C of 150% or more; inactive = T/C below 125%.

System: L1210 leukemia ip in BDF1 mice, survival T/C
Test: NCI In Vivo Anticancer Drug Screen. Data for tumor model L1210 Leukemia (intraperitoneal) in B6D2F1 (BDF1) mice
Conditions: endpoint: mean survival time, higher = longer survival
How it was run: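 In this screen, tumor-bearing mice given compound are compared to those given vehicle, and their survival values are reported as a treated-to-control quotient.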

[1] = dose: 50.0 mg/kg/injection, schedule: Q01DX009 (ip), vehicle: saline with Tween-80
[2] = dose: 100.0 mg/kg/injection, schedule: Q01DX009 (ip), vehicle: saline with Tween-80
[3] = dose: 100.0 mg/kg/injection, schedule: Q04DX003 (ip), vehicle: saline with Tween-80
[4] = dose: 200.0 mg/kg/injection, schedule: Q01DX009 (ip), vehicle: saline with Tween-80
[5] = dose: 200.0 mg/kg/injection, schedule: Q04DX003 (ip), vehicle: saline with Tween-80
[6] = dose: 400.0 mg/kg/injection, schedule: Q04DX003 (ip), vehicle: saline with Tween-80
[7] = dose: 100.0 mg/kg/injection, schedule: Q01DX009 (ip), vehicle: Klucel (hydroxypropylcellulose) (HPC)
[8] = dose: 100.0 mg/kg/injection, schedule: Q04DX003 (ip), vehicle: Klucel (hydroxypropylcellulose) (HPC)
[9] = dose: 100.0 mg/kg/injection, schedule: Q01DX001 (ip), vehicle: saline with Tween-80
[10] = dose: 200.0 mg/kg/injection, schedule: Q01DX001 (ip), vehicle: saline with Tween-80
[11] = dose: 400.0 mg/kg/injection, schedule: Q01DX001 (ip), vehicle: saline with Tween-80
[12] = dose: 25.0 mg/kg/injection, schedule: Q04DX003 (ip), vehicle: saline
[13] = dose: 50.0 mg/kg/injection, schedule: Q04DX003 (ip), vehicle: saline
[14] = dose: 200.0 mg/kg/injection, schedule: Q04DX003 (ip), vehicle: Klucel (hydroxypropylcellulose) (HPC)
[15] = dose: 400.0 mg/kg/injection, schedule: Q04DX003 (ip), vehicle: Klucel (hydroxypropylcellulose) (HPC)
[16] = dose: 200.0 mg/kg/injection, schedule: Q01DX009 (ip), vehicle: Klucel (hydroxypropylcellulose) (HPC)

Measured: T/C

Cc1cccc(NCc2ccc(Cl)cc2Cl)c1
inactive: [1] 106 % of control | [2] 103 % of control | [3] 93 % of control and 88 % of control | [4] 98 % of control | [5] 95 % of control | [6] 96 % of control and 101 % of control

O=C1N(Cl)C(=O)C(c2ccc(Cl)cc2)(c2ccc(Cl)cc2)N1Cl
inactive: dose: 12.5 mg/kg/injection, schedule: Q01DX009 (ip), vehicle: saline with Tween-80 98 % of control | dose: 25.0 mg/kg/injection, schedule: Q01DX009 (ip), vehicle: Klucel (hydroxypropylcellulose) (HPC) 106 % of control | dose: 25.0 mg/kg/injection, schedule: Q01DX009 (ip), vehicle: saline with Tween-80 96 % of control | dose: 25.0 mg/kg/injection, schedule: Q04DX003 (ip), vehicle: Klucel (hydroxypropylcellulose) (HPC) 113 % of control | dose: 50.0 mg/kg/injection, schedule: Q01DX001 (ip), vehicle: carboxymethylcellulose (CMC) 101 % of control | dose: 50.0 mg/kg/injection, schedule: Q01DX009 (ip), vehicle: Klucel (hydroxypropylcellulose) (HPC) 106 % of control | [1] 102 % of control | dose: 50.0 mg/kg/injection, schedule: Q04DX003 (ip), vehicle: Klucel (hydroxypropylcellulose) (HPC) 106 % of control | dose: 100.0 mg/kg/injection, schedule: Q01DX001 (ip), vehicle: carboxymethylcellulose (CMC) 108 % of control | [7] 98 % of control | dose: 100.0 mg/kg/injection, schedule: Q01DX009 (ip), vehicle: saline sonified 122 % of control | [2] 106 % of control | [8] 108 % of control | dose: 200.0 mg/kg/injection, schedule: Q01DX001 (ip), vehicle: carboxymethylcellulose (CMC) 102 % of control | dose: 200.0 mg/kg/injection, schedule: Q01DX009 (ip), vehicle: saline sonified 93 % of control | [4] 106 % of control | dose: 400.0 mg/kg/injection, schedule: Q01DX001 (ip), vehicle: carboxymethylcellulose (CMC) 103 % of control

CS(=O)(=O)OC1C(N=[N+]=[N-])CN(C(=O)c2ccccc2)C1CCOC(=O)c1ccccc1 (configuration not stated)
inactive: [9] 102 % of control | [10] 96 % of control | [11] 96 % of control

CN1CCCN(C)C1c1ccccc1O
inactive: dose: 12.5 mg/kg/injection, schedule: Q04DX003 (ip), vehicle: saline 96 % of control | [12] 106 % of control | [13] 101 % of control

NC(N)=N/N=C/C(F)(F)F
inactive: dose: 15.0 mg/kg/injection, schedule: Q01DX Z (ip), vehicle: methylcellulose (MC) 105 % of control | dose: 30.0 mg/kg/injection, schedule: Q01DX Z (ip), vehicle: methylcellulose (MC) 102 % of control | dose: 60.0 mg/kg/injection, schedule: Q01DX Z (ip), vehicle: methylcellulose (MC) 112 % of control | dose: 60.0 mg/kg/injection, schedule: Q01DX Z (oral), vehicle: methylcellulose (MC) 92 % of control | dose: 120.0 mg/kg/injection, schedule: Q01DX Z (ip), vehicle: methylcellulose (MC) 97 % of control | dose: 120.0 mg/kg/injection, schedule: Q01DX Z (oral), vehicle: methylcellulose (MC) 93 % of control | dose: 240.0 mg/kg/injection, schedule: Q01DX Z (ip), vehicle: methylcellulose (MC) 88 % of control | dose: 240.0 mg/kg/injection, schedule: Q01DX Z (oral), vehicle: methylcellulose (MC) 102 % of control | dose: 420.0 mg/kg/injection, schedule: Q01DX Z (ip), vehicle: methylcellulose (MC) 88 % of control | dose: 480.0 mg/kg/injection, schedule: Q01DX Z (oral), vehicle: methylcellulose (MC) 95 % of control

N#C/C(=C\c1ccccc1)C(=O)Nc1ccccc1
inactive: [8] 94 % of control | [14] 92 % of control | [15] 92 % of control

Cc1nnc(NS(=O)(=O)c2ccc(N=Nc3c(N)nc(N)[nH]c3=O)cc2)s1
inactive: dose: 5.0 mg/kg/injection, schedule: Q01DX001 (ip), vehicle: saline 105 % of control | dose: 10.0 mg/kg/injection, schedule: Q01DX001 (ip), vehicle: saline 102 % of control | dose: 20.0 mg/kg/injection, schedule: Q01DX001 (ip), vehicle: saline 98 % of control | dose: 40.0 mg/kg/injection, schedule: Q01DX001 (ip), vehicle: saline 102 % of control

COc1ccc(CCNC(=O)c2ccccc2N)cc1OC
inactive: [9] 97 % of control | [2] 90 % of control and 91 % of control | dose: 100.0 mg/kg/injection, schedule: Q04DX002 (ip), vehicle: saline with Tween-80 98 % of control | [3] 105 % of control | [10] 98 % of control | [4] 95 % of control and 109 % of control | dose: 200.0 mg/kg/injection, schedule: Q04DX002 (ip), vehicle: saline with Tween-80 98 % of control | [5] 92 % of control | [11] 106 % of control | dose: 400.0 mg/kg/injection, schedule: Q01DX009 (ip), vehicle: saline with Tween-80 90 % of control and 91 % of control | dose: 400.0 mg/kg/injection, schedule: Q04DX002 (ip), vehicle: saline with Tween-80 95 % of control | [6] 95 % of control

CCCC(=O)CCN(C)Cc1ccccc1
inactive: dose: 100.0 mg/kg/injection, schedule: Q01DX001 (ip), vehicle: saline 103 % of control

O=[N+]([O-])c1ccc(-n2nccn2)cc1
inactive: dose: 75.0 mg/kg/injection, schedule: Q01DX001 (ip), vehicle: other 100 % of control | dose: 150.0 mg/kg/injection, schedule: Q01DX001 (ip), vehicle: other 107 % of control

CC(=O)n1c(N)nc2ccccc21
inactive: [7] 103 % of control | [16] 102 % of control

COc1cc(C(O)CN)cc(OC)c1OC (configuration not stated)
inactive: dose: 25.0 mg/kg/injection, schedule: Q01DX009 (ip), vehicle: saline 100 % of control | [12] 88 % of control | dose: 50.0 mg/kg/injection, schedule: Q01DX009 (ip), vehicle: saline 94 % of control | [13] 94 % of control | dose: 100.0 mg/kg/injection, schedule: Q01DX009 (ip), vehicle: saline 104 % of control | dose: 100.0 mg/kg/injection, schedule: Q04DX003 (ip), vehicle: saline 88 % of control | dose: 200.0 mg/kg/injection, schedule: Q01DX009 (ip), vehicle: saline 110 % of control | dose: 200.0 mg/kg/injection, schedule: Q04DX003 (ip), vehicle: saline 94 % of control | dose: 400.0 mg/kg/injection, schedule: Q04DX003 (ip), vehicle: saline 91 % of control

N=C(N)/C(N)=N\C1=NCCN1
inactive: [7] 101 % of control | [8] 95 % of control | dose: 178.0 mg/kg/injection, schedule: Q04DX003 (ip), vehicle: Klucel (hydroxypropylcellulose) (HPC) 97 % of control | [16] 101 % of control | [14] 93 % of control | dose: 266.0 mg/kg/injection, schedule: Q04DX003 (ip), vehicle: Klucel (hydroxypropylcellulose) (HPC) 92 % of control | [15] 90 % of control and 92 % of control | dose: 600.0 mg/kg/injection, schedule: Q04DX003 (ip), vehicle: Klucel (hydroxypropylcellulose) (HPC) 93 % of control

CCCCn1cnc2ccc3[nH]c(C)nc3c2c1=O
inactive: dose: 12.5 mg/kg/injection, schedule: Q01DX001 (ip), vehicle: carboxymethylcellulose (CMC) 104 % of control | dose: 25.0 mg/kg/injection, schedule: Q01DX001 (ip), vehicle: carboxymethylcellulose (CMC) 96 % of control
